Test results as given in PubChem BioAssay AID1996.
Values after ≈ are worked out from the molar mass of the structure shown.

Conditions: buffer; pH 7.4; 200.0 µM

| Structure (SMILES) | solubility kinetic |
| --- | --- |
| O=C(Nc1cccc(Cl)c1)OC1CCCCc2cccnc21 (stereo not drawn) | 9.3 µg/mL (≈ 29.4 µM) |
| COc1ccc(-c2csc(C)n2)cc1Br | 14.8 µg/mL (≈ 52.1 µM) |
| Cc1cc2oc(=O)cc(CN3CCC(C)CC3)c2cc1C | 4.1 µg/mL (≈ 14.4 µM) |
| COCCN(CCOC)C(=O)Nc1ccc(Cl)cc1 | > 43 µg/mL |
| Cc1nc2ccc(NS(=O)(=O)c3ccc(F)c(C)c3)cc2[nH]1 | > 47.9 µg/mL |
| O=C(CC(=O)c1ccccc1)Nc1ccc(Cl)cc1 | 3.3 µg/mL (≈ 12.1 µM) |
| COc1ccc(CNC(=O)c2cc(=O)c3c(C)cc(C)cc3o2)cc1 | < 0.7 µg/mL |
| CC(OC(=O)c1cccnc1Cl)C(=O)NCc1ccccc1 (stereo not drawn) | > 47.8 µg/mL |
| C/C(=C\c1cccc(Cl)c1Cl)C(=O)c1c(C)cc(C)[nH]c1=O | 3.5 µg/mL (≈ 10.4 µM) |
| CCOC(=O)CNC(=O)CN1CCC(c2nc3ccccc3[nH]2)CC1 | > 51.7 µg/mL |
| CCc1ccc(OC)c(-c2csc(N)n2)c1 | > 35.1 µg/mL |
| Cc1cc(C)c(NC(=O)Nc2ccccc2C)c(Cl)c1 | 0.8 µg/mL (≈ 2.77 µM) |
| CCN(c1ccccc1)S(=O)(=O)c1csc(C(N)=O)c1 | 44.3 µg/mL (≈ 143 µM) |
| CC(=O)N1CCN(C(=O)c2cc(C)oc2C)CC1 | > 37.5 µg/mL |
| CCN(CC(=O)Nc1cc(Cl)ccc1C)C(=O)CC1CCCC1 | > 50.5 µg/mL |
| Br.CCSC(=Nc1ccccc1)N1CCOCC1 | 43.9 µg/mL |
| Cc1ccc(C(=O)Nc2cccnc2)cc1Cl | 35.6 µg/mL (≈ 144 µM) |
| CC(=NCCc1ccccc1)c1c(O)n(C)c(=O)n(C)c1=O | 37.2 µg/mL (≈ 123 µM) |
| CC(OC(=O)CCc1nc2ccccc2[nH]c1=O)c1ccccc1 (stereo not drawn) | 11.9 µg/mL (≈ 36.9 µM) |
| O=C(NCCOc1ccccc1)C(=O)NCC1CCCO1 (stereo not drawn) | > 43.9 µg/mL |
| O=C(CN1CCN(Cc2ccccc2)CC1)NCCc1ccccc1 | 47.3 µg/mL (≈ 140 µM) |
| CC1=C(c2ccccc2)C(=S)NC(C)(C)C1 | 2.5 µg/mL (≈ 10.8 µM) |
| CC1(C)NC(=O)N(CC(=O)OCC(=O)c2ccc(Br)s2)C1=O | > 58.4 µg/mL |
| CCOc1ccc([N+](=O)[O-])cc1CNC1CCCCCCC1.Cl | > 51.4 µg/mL |
| COc1ccccc1C1Nc2ccccc2NC2=C1C(=O)CC(C)(C)C2 (stereo not drawn) | 51.6 µg/mL (≈ 148 µM) |

| Structure (SMILES) | solubility kinetic |
| --- | --- |
| O=S(=O)(NCCN1CCOCC1)c1ccc2ccccc2c1 | > 48.1 µg/mL |
| CCCCC(=O)NC(=S)Nc1cc([N+](=O)[O-])ccc1OC | 0.7 µg/mL (≈ 2.25 µM) |
| CC1CCN(S(=O)(=O)c2cnc[nH]2)CC1 | > 34.4 µg/mL |
| COc1ccc(-c2noc(=O)n2Cc2ccc(F)cc2Cl)cc1 | 3.5 µg/mL (≈ 10.5 µM) |
| COc1cccc(N2CCN(c3nc(C)c(C)c(=O)[nH]3)CC2)c1 | 25.9 µg/mL (≈ 82.4 µM) |
| CC(CN1CCCCC1)OC(=O)COc1ccc(Cl)cc1.Cl (stereo not drawn) | > 52.2 µg/mL |
| O=C(Nc1cccc(Cl)c1)c1ccc2ncsc2c1 | 21.2 µg/mL (≈ 73.4 µM) |
| COC(=O)C1CN(C(=O)c2ccc(OC(F)F)cc2)c2ccccc2O1 (stereo not drawn) | 43.1 µg/mL (≈ 119 µM) |
| NC(=S)COc1ccccc1 | 18.3 µg/mL (≈ 109 µM) |
| O=C(CSc1ccc(-c2ccncc2)nn1)N1CCCC1 | > 45.1 µg/mL |
| O=C1OC(Nc2ccc(F)c([N+](=O)[O-])c2)c2ccccc21 (stereo not drawn) | 42.6 µg/mL (≈ 148 µM) |
| Cc1onc(C(=O)NC2CCCCC2)c1[N+](=O)[O-] | > 38 µg/mL |
| O=C(NCc1csc(-c2cccs2)n1)c1cccc(Cl)c1 | 7.9 µg/mL (≈ 23.6 µM) |
| CC1=C(C(=O)OC2CCCCC2)C(c2ccc(F)cc2)NC(=O)N1 (stereo not drawn) | 31.2 µg/mL (≈ 93.9 µM) |
| Cc1cc(C)c(NC(=O)CNC(=O)c2ccc3ncsc3c2)c(C)c1 | 6.7 µg/mL (≈ 19 µM) |
| Cc1cccc(N2C(=O)/C(=C/c3ccccn3)SC2=S)c1 | < 0.3 µg/mL |
| O=C(C1CCCO1)N1CCN(C(=S)NC2CC2)CC1 (stereo not drawn) | > 42.5 µg/mL |
| Cc1ccc(S(=O)(=O)N2CCN(Cc3ccccc3)CC2)cc1 | 5 µg/mL (≈ 15.1 µM) |
| COc1ccc(-n2c(C)c(C)c3c(NCCCO)ncnc32)cc1 | > 49 µg/mL |
| O=C(Cc1ccc(Cl)cc1)N1CCOCC1 | > 36 µg/mL |
| Nc1nc(C2CCOCC2)cs1 | > 27.6 µg/mL |
| CC1CCN(C(=O)CC#N)CC1 | > 24.9 µg/mL |
| COc1ccc(CCNC(=O)COC(=O)Cc2ccccc2F)cc1 | > 51.8 µg/mL |
| CCOC(=O)c1cc2c(=O)c3ccccc3oc2nc1C | 2.1 µg/mL (≈ 7.41 µM) |
| CCOc1ccc(-c2cn3ccccc3n2)cc1 | 18.1 µg/mL (≈ 76 µM) |

| Structure (SMILES) | solubility kinetic |
| --- | --- |
| C=CCN=C1S/C(=C\c2ccc(N(C)C)cc2)C(=O)N1CC=C | 5.5 µg/mL (≈ 16.8 µM) |
| O=S(=O)(NC1CCCCCCC1)c1ccccc1F | 42.5 µg/mL (≈ 149 µM) |
| CC(=O)c1ccc(OCCOc2ccc([N+](=O)[O-])cc2)cc1 | 3.7 µg/mL (≈ 12.3 µM) |
| COc1cccc(N2CCN(C(=O)/C=C/c3ccco3)CC2)c1 | 44.6 µg/mL (≈ 143 µM) |
| O=C(CC1CCC1)Nc1cccc2c([N+](=O)[O-])cccc12 | 5.8 µg/mL (≈ 20.4 µM) |
| COc1ccc(S(=O)(=O)NC(C)C(=O)NC2CC2)cc1C (stereo not drawn) | > 46.9 µg/mL |
| COc1ccc(C)cc1-n1c(C)cc(C=O)c1C | 36.4 µg/mL (≈ 150 µM) |
| Cc1nc(N)nc(COc2ccccc2)n1 | > 32.4 µg/mL |
| COc1cccc(-n2cnc3sc4c(c3c2=O)CCC4)c1 | 5.9 µg/mL (≈ 19.8 µM) |
| CN(Cc1cccc(F)c1)CC(O)COCc1ccccc1Cl (stereo not drawn) | 44.9 µg/mL (≈ 133 µM) |
| Cc1ccc(NCc2ccco2)cc1C.O=C(O)C(=O)O | 4.7 µg/mL |
| COc1ccc(CCNC(=O)c2cc(C)oc2C)cc1OC | 42 µg/mL (≈ 138 µM) |
| OC1CCC(Nc2ncnc3sccc23)CC1 (stereo not drawn) | > 37.4 µg/mL |
| CC1(C)C[C@@H]2C[C@@](C)(CN2C(=O)c2ccccc2)C1 | 36.5 µg/mL (≈ 142 µM) |
| Cc1nonc1-c1csc(N)n1 | > 27.3 µg/mL |
| COc1ccc2cc(S(=O)(=O)Nc3ccccn3)ccc2c1 | 10 µg/mL (≈ 31.8 µM) |
| CC(=O)Nc1ccc(C(=O)OCC(=O)N2CC3(C)CC2CC(C)(C)C3)cc1 (stereo not drawn) | 15.6 µg/mL (≈ 41.9 µM) |
| O=C(O)c1ccc(NC2=Nc3cccc4cccc2c34)cc1 | 36 µg/mL (≈ 125 µM) |
| O=C(Nc1cc(Cl)ccc1N1CCOCC1)c1cccnc1 | > 47.7 µg/mL |
| Cc1cc(C(=O)OCC(=O)Nc2nccs2)c2ccccc2n1 | 6.8 µg/mL (≈ 20.8 µM) |
| Cc1cccn2c(=O)c(C=O)c(N3CCC4(CC3)OCCO4)nc12 | > 49.4 µg/mL |
| COc1ccc(CC(C)NCCC(c2ccccc2)c2ccccc2)cc1 (stereo not drawn) | 47.1 µg/mL (≈ 131 µM) |
| Cc1ccsc1CNS(=O)(=O)c1ccc(F)cc1 | 30 µg/mL (≈ 105 µM) |
| Cc1cc(-c2cccs2)c(C#N)c(=S)[nH]1 | 28.3 µg/mL (≈ 122 µM) |
| NC(=O)c1ccc(NC(=O)Nc2ccc3c(c2)OCO3)cc1 | 3.8 µg/mL (≈ 12.7 µM) |

| Structure (SMILES) | solubility kinetic |
| --- | --- |
| CC1CC1C(=O)OCC(=O)NC(=O)c1ccccc1 (stereo not drawn) | > 39.2 µg/mL |
| O=C(COC(=O)/C=C/c1ccc(C(F)(F)F)cc1)NCc1ccco1 | 35.7 µg/mL (≈ 101 µM) |
| Cc1ccccc1NC(=O)COC(=O)c1cc[n+]([O-])cc1 | > 42.9 µg/mL |
| O=[N+]([O-])c1ccc(N2CCOCC2)c2cccnc12 | > 38.9 µg/mL |
| CCCOC(=O)C1=C(C)N(C)C(=O)NC1c1cc2c(cc1[N+](=O)[O-])OCO2 (stereo not drawn) | 49.4 µg/mL (≈ 131 µM) |
| CCC(=O)Nc1ccc2c(c1)nc(CCN1CCCCC1)n2C | 43.2 µg/mL (≈ 137 µM) |
| CCC(=O)NC1(C(F)(F)F)C(=O)Nc2c1c(=O)[nH]c(=O)n2CC(C)C (stereo not drawn) | 54 µg/mL (≈ 149 µM) |
| COC(=O)NC1c2ccccc2Oc2ccc(C)cc21 (stereo not drawn) | < 0.6 µg/mL |
| O=C1COCC(=O)N1CCc1c[nH]c2ccccc12 | > 38.7 µg/mL |
| Cc1ccc(OCC(=O)Nc2ccc(S(=O)(=O)N3CCCC3)cc2)cc1 | 0.5 µg/mL (≈ 1.34 µM) |
| Oc1ccccc1C(=S)N1CCN(c2cccc(Cl)c2)CC1 | 20 µg/mL (≈ 60.1 µM) |
| COc1cccc2cc(-c3nc4ccccc4o3)c(=O)oc12 | 1.7 µg/mL (≈ 5.8 µM) |
| Cc1cc(=O)[nH]c2c(C)cc(S(=O)(=O)Nc3ccc(O)cc3)cc12 | 49.7 µg/mL (≈ 144 µM) |
| CC(=O)c1ccc(NC(=O)c2onc(C)c2Cl)cc1 | 6.8 µg/mL (≈ 24.4 µM) |
| CC(=O)Nc1ccc(S(=O)(=O)N2CCSc3ccccc32)cc1 | 49.6 µg/mL (≈ 142 µM) |
| Cc1ccccc1NC(=O)CSc1nc2scc(C)c2c(=O)[nH]1 | 1.4 µg/mL (≈ 4.05 µM) |
| Cc1ccc(/C=N/n2c(C)nc3ccccc3c2=O)o1 | > 40.1 µg/mL |
| CC(=O)N1C(C(=O)O)Cc2c([nH]c3ccccc23)C1(C)C (stereo not drawn) | > 42.9 µg/mL |
| O=c1oc2ccccc2n1Cc1cccc(Cl)c1 | 0.8 µg/mL (≈ 3.08 µM) |
| CCCOc1ccc(C2=CSC3=NCCN23)cc1[N+](=O)[O-] | > 45.8 µg/mL |
| Fc1ccccc1-c1nc2ccccc2[nH]1 | > 31.8 µg/mL |
| CC(C)c1ccc(NC(=O)CC2Oc3ccccc3NC2=O)cc1 (stereo not drawn) | 1.3 µg/mL (≈ 4.01 µM) |
| Cn1c(SCc2ccc([N+](=O)[O-])cc2)nnc1-c1ccncc1 | > 49.1 µg/mL |
| CCOc1ccc(NC(=O)NCc2ccc3c(c2)OCO3)cc1 | 1.8 µg/mL (≈ 5.73 µM) |
| CCCN(Cc1ccco1)S(=O)(=O)c1ccc(OC)c(OC)c1 | 41.3 µg/mL (≈ 122 µM) |

| Structure (SMILES) | solubility kinetic |
| --- | --- |
| Cc1cc(-c2ccc(Cl)cc2Cl)c(C#N)c(=O)[nH]1 | 3.4 µg/mL (≈ 12.2 µM) |
| Cc1cc(Nc2cc(Cl)cc(Cl)c2)nc(N)n1 | 20 µg/mL (≈ 74.3 µM) |
| Cc1ccc(Cc2c(C)[nH]c(=S)[nH]c2=O)cc1 | 7.4 µg/mL (≈ 30 µM) |
| O=C(Nc1ccc(F)cc1F)c1ccc(S(=O)(=O)NCc2ccco2)cc1 | 10.5 µg/mL (≈ 26.8 µM) |
| CC[C@H](C)[C@H](NC(N)=O)C(=O)NCCc1ccc(Cl)cc1 | > 46.8 µg/mL |
| COc1cccc(OC)c1CNC(=O)CCSCc1ccccc1F | 37.3 µg/mL (≈ 103 µM) |
| Cc1cc(C(=O)OCC(=O)NCc2ccccc2)c(C)o1 | > 43.1 µg/mL |
| O=C(Nc1ccc2c(c1)OCCO2)c1ccc(Br)cc1 | < 0.7 µg/mL |
| COc1cccc(CNC(=O)c2cc(C)nc3ccccc23)c1 | 41.1 µg/mL (≈ 134 µM) |
| COc1ccccc1-n1nc(C)c(-c2ccccc2)c1N | > 41.9 µg/mL |
| O=C(COC(=O)/C=C/c1cccc(Br)c1)NCc1cccs1 | 5 µg/mL (≈ 13.1 µM) |
| COC(=O)c1ccncc1N | > 22.8 µg/mL |
| CCOc1ccc(NC(=S)NCc2ccc3[nH]c(C)cc3c2)cc1 | 11.4 µg/mL (≈ 33.6 µM) |
| O=C(NNC(=S)NC1CC2C=CC1C2)c1cccnc1 (stereo not drawn) | > 43.3 µg/mL |
| Cc1ccc2c(CN3CCCCC3CCO)cc(=O)oc2c1 (stereo not drawn) | 39.4 µg/mL (≈ 131 µM) |
| CC(C)Cn1c(=S)[nH]c2cc(Cl)ccc21 | 18.5 µg/mL (≈ 76.8 µM) |
| CN1CCCC(OC(=O)c2ccc(Cl)cc2)C1.Cl (stereo not drawn) | 41.5 µg/mL |
| N#C/C=C/N1CCN(C(=O)c2ccco2)CC1 | > 34.7 µg/mL |
| COc1ccc2c(c1)CC/C(=C\Nc1ccc3c(c1)OCO3)C2=O | 11.2 µg/mL (≈ 34.6 µM) |
| CCN(CC)CCOC(=O)c1ccc([N+](=O)[O-])cc1.Cl | > 45.4 µg/mL |
| CCCCc1ccc(NC(=O)c2cnccn2)cc1 | 4 µg/mL (≈ 15.7 µM) |
| COc1ccc2[nH]c(C(=O)N(C)Cc3ccccc3)c(C)c2c1 | 9.1 µg/mL (≈ 29.5 µM) |
| O/N=C/c1ccc2cccc(O)c2n1 | 26.3 µg/mL (≈ 140 µM) |
